Results as given in article PMC6449863, “Rational Design of Antiangiogenic Helical Oligopeptides Targeting the Vascular Endothelial Growth Factor Receptors” (Frontiers in Chemistry, 2019).
Square brackets hold non-standard residues; d marks the D form. Peptide text beside a SMILES is read from it. Aib = CC(C)(N)C(=O)O

Tests used:
[1] = biological target: T1, extracellular domain of VEGFR-1 (Homo sapiens, UniProt P17948); test: Chemiluminescent assay: inhibition of biotinylated VEGF165 binding to isolated VEGFR-1; conditions: peptide at 500 μM; chemiluminescence read-out
T1 construct: the extracellular domain of VEGFR-1; purchased R&D Systems
Text: A chemiluminescent assay to determine the inhibition of complex formation between VEGF-A (isoform VEGF165) and the extracellular domain of VEGFR-1 (Goncalves et al., [2007]; García-Aranda et al., [2013]) had been previously employed in our group (Zanella et al., [2015]). VEGF-C (from which analogue 1 was derived) is not selective for VEGFR-1 (Su et al., [2007]), but unfortunately the same assay protocol turned out to be ineffective with VEGFR-2, at least in our hands. The assay based on VEGFR-1 was therefore applied here as a very stringent test of the affinity of our peptides for VEGFRs, and to assess the different peptides comparatively. All peptides were able to inhibit complex formation (Table 3), although in the high micromolar range. […] Further studies were focused on analogues 5 and 6, considering also the higher stability of their secondary structure, which affects resistance to proteolytic degradation.
The chemiluminescent screening assay for the detection of VEGFR-1 ligands was accomplished according to the procedure described in the Supporting Information. […]
horseradish peroxidase diluted at 1:1000 in PBS containing 0.1% (v/v) Tween 20 and 0.3% (w/v) BSA were added per well. Af ter 1 h of incubation at r.t., the plate was washed f ive times with 150 μL of buffer A and 100 μL of SuperSignal W est Pico Chemiluminescent Substrate (Pierce, Rockford, IL, USA) were added. The remaining bt-VEGF165 was detected by chemiluminescence, which was quantif ied with a Synergy™ HT Multi -Detection Microplate Reader (BioTek Instruments, Inc.). The percentages of btVEGF165 displacement were calculated by the following formula: percentage of displacement = 100×[1−( S−NS) / (MS−NS)], where S is the signal measured, NS is the nonspecific binding signal and MS is the maximum binding signal observed with btVEGF165 without tested compounds. […]
loading: 0.5 mmol/g) were used.
Each coupling step consisted in:
1) activation of the Fmoc-protected amino acid;
2) addition of the activated amino acid to the resin at the synthesizer to start the coupling; 3) steps of capping, deprotection and washing.
To perform the automated SPPS, two solutions and two solvents were prepared: 25% Ac2O in DMF (v/v), 25% piperidine in DMF (v/v), methanol and DMF. W hile MeOH was used only as washing solvent, DMF was necessary either for washings and as solvent for the reactions of coupling, capping and deprotection. […]

trypsin = test: Resistance to proteolytic degradation, trypsin; format: in vitro ADME; conditions: Tris·HCl 50 mM pH 7.8, 37°C, RP-HPLC C18 read-out
Procedure: (§1) The proteolytic stability of peptides 1, 5, and 6 was assessed against three enzymes: pronase, trypsin and chymotrypsin (Sigma-Aldrich). Each peptide was dissolved in the appropriate buffer [i.e., (2-amino-2-hydroxymethyl-propane-1,3-diol (Tris)·HCl 20 mM, containing 20 mM CaCl2 pH 7.6 for pronase; Tris·HCl 50 mM, pH 7.8 for trypsin and chymotrypsin). Then, it was incubated with and without the enzyme solution (1.25 μg of enzyme in […] buffer) at 37°C for 12 h. The mixture was analyzed by RP-HPLC (column: Phenomenex Jupiter 5 μ C18 300 Å) every ten minutes for the first hour, then every half hour. Gradients: 5–25%B in 10 min for peptide 1; 15–35%B in 10 min for peptide 5; 15–25%B in 10 min for peptide 6. Eluants: A, H2O:CH3CN 9/1 + 0.05% trifluoroacetic acid (TFA); B: CH3CN:H2O 9/1 + 0.05% TFA.

chymotrypsin = test: Resistance to proteolytic degradation, chymotrypsin; format: in vitro ADME; conditions: Tris·HCl 50 mM pH 7.8, 37°C, RP-HPLC C18 read-out
Procedure: as §1

pronase = test: Resistance to proteolytic degradation, pronase; format: in vitro ADME; conditions: Tris·HCl 20 mM with 20 mM CaCl2 pH 7.6, 37°C, RP-HPLC C18 read-out
Procedure: as §1

[2] = biological target: T1, extracellular domain of VEGFR-1; conditions: chemiluminescent VEGFR-1 ligand screening assay; ref Zanella et al., 2015; read-out: IC50 of unlabeled VEGF165 (reference compound); cited from earlier work
Text: The chemiluminescent screening assay for the detection of VEGFR-1 ligands was accomplished according to the procedure described in the Supporting Information.

T1 sequence (P17948 27-758 limits assumed): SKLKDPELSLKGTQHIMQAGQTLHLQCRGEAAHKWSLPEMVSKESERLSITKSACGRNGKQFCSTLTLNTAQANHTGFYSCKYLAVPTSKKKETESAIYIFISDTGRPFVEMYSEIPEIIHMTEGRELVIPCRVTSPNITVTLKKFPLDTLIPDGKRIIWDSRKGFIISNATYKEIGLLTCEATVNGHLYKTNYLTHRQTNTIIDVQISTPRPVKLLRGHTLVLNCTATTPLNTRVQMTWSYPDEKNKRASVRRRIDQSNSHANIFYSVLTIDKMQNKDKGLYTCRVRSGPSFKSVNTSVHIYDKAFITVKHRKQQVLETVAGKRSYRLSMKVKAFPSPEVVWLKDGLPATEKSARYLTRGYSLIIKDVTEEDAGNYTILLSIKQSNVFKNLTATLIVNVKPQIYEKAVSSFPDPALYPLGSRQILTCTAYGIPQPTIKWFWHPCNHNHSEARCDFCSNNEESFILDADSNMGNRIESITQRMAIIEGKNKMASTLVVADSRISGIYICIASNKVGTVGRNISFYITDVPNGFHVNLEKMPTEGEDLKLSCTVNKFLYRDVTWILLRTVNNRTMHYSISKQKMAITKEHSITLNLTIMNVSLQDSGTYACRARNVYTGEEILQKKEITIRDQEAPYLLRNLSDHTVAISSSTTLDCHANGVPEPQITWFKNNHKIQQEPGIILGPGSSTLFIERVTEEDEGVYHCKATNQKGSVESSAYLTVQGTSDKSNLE

| Compound | inhibition at 500 µM [1] [%] | further results |
| --- | --- | --- |
| CC[C@H](C)[C@H](NC(=O)C(C)(C)NC(C)=O)C(=O)N[C@@H](CC(=O)O)C(=O)N[C@@H](CC(N)=O)C(=O)NC(C)(C)C(=O)N[C@@H](Cc1c[nH]c2ccccc12)C(=O)N[C@@H](CCCNC(=N)N)C(=O)N[C@@H](CCCCN)C(=O)NC(C)(C)C(=O)N[C@@H](CCC(N)=O)C(N)=O [Peptide 3, Ac-Aib-Ile-Asp-As n -Aib-Trp-Arg -Lys-Aib-Gln-amide] (Ac-[Aib]IDN[Aib]WRK[Aib]Q-NH2) | 86 ± 1 | – |
| CC(=O)NC(C)(C)C(=O)N[C@@H](Cc1c[nH]c2ccccc12)C(=O)N[C@@H](CC(=O)O)C(=O)N[C@@H](CC(N)=O)C(=O)NC(C)(C)C(=O)N[C@@H](Cc1c[nH]c2ccccc12)C(=O)N[C@@H](CCCNC(=N)N)C(=O)N[C@@H](CCCCN)C(=O)NC(C)(C)C(=O)N[C@@H](Cc1c[nH]c2ccccc12)C(N)=O [Peptide 4, Ac-Aib-Trp- Asp-Asn-Aib-Trp- Arg -Lys-Aib-Trp-amide] (Ac-[Aib]WDN[Aib]WRK[Aib]W-NH2) | 40 ± 10 | – |
| Ac-IDNEWRKTQ-NH2 [Peptide 1, Ac-Ile-Asp-Asn-Glu-Trp-Arg -Lys-T hr -Gln-amide] | 27 ± 1 | time within which peptide was degraded by trypsin (trypsin): ≤ 15 min; time within which peptide was degraded by chymotrypsin (chymotrypsin): ≤ 15 min; time within which peptide was degraded by pronase (pronase): ≤ 15 min |
| Ac-WDNEWRKTW-NH2 [Peptide 2] | 29 ± 7 | – |
| VEGF165: VEGF-A isoform VEGF165, unlabeled, employed as reference compound in the VEGFR-1 assay | – | IC50 [2]: 0.146 nM |
